Here are results for 3 molecules from patent publication US4404138A, “3-[2-(Azabicyclo) ethyl]-1,2,3,4-tetrahydro-5H-[1]benzopyrano[3,4-c]pyridin-5-ones” (Warner-Lambert Company, priority 1982, dated 1983).

Like-named read-outs stand apart in the source and are kept apart here.

This test concerns pilocarpine-induced bronchospasm and salivary flow in mongrel dogs. Put plainly: Pilocarpine-induced bronchospasm and salivation in anesthetized mongrel dogs. The following applies: for ED50: Canis lupus familiaris, anesthetized dogs, pilocarpine nitrate 0.2 mg/kg/hr infusion, cumulative IV doses; for Pulmonary Selectivity*: value >1 indicates the compound is more potent as a bronchodilator than as an antisecretory agent. The test is classed as in vivo. How it is done:
In an additional testing procedure, mongrel dogs of either sex, 10.6 to 15.3 kg, are anesthetized with sodium pentobarbital, 30 mg/kg IV and then prepared for the monitoring of pulmonary mechanics. A Buxco pulmonary mechanics computer is used to calculate pulmonary resistance, dynamic compliance, and tidal volume from transpulmonary pressure and flow data. Respiratory rate, heart rate and mean arterial blood pressure are also monitored. The femoral vein is cannulated for the delivery of drugs.
Pilocarpine nitrate (0.2 mg/kg/hr) is than infused to induce a bronchospasm and salivary flow. […] Salivary output is collected from a catheterized Wharton's duct at five minute intervals. After salivation has stabilized, three control collections are taken at five minute intervals followed by a series of cumulative IV doses of test compound (1, 3, 10, 30, 100, 300, 1000, 3000, and 10,000 μg/kg) that are injected every five minutes for 45 minutes.
The percent inhibition of both the bronchospasm and salivation are calculated for each dose with a return to prepilocarpine resistance levels or cessation of salivation equal to a 100% inhibition.

The mark [1] stands for this setting: inhibition of bronchospasm, read-out: ID50 μg/kg Bronchospasm.
Where [2] appears, read: inhibition of salivation, read-out: ID50 μg/kg Salivation.

With `COc1ccc2c3c(c(=O)oc2c1)CN(CCN1CC2CCC1CC2)CC3` [R1=H, R2=MeO, R3=H, X=drawing 16], the “Pulmonary Selectivity*” value is 1.61. Moreover, the ED50 under setting [1] was 63 µg/kg. Moreover, under setting [2], the ED50 turned out to be 102 µg/kg.

Turning to `COc1cc2oc(=O)c3c(c2cc1OC)CCN(CCN1CC2CCC(CC2)C1)C3` [R1=MeO, R2=MeO, R3=H, X=drawing 15], the “Pulmonary Selectivity*” value is 4.7. Further, the ED50 under setting [1] came to 113 µg/kg. Further, the ED50 under setting [2] stood at 530 µg/kg.

In the case of `COc1ccc2c3c(c(=O)oc2c1)CN(CCN1CC2CCC(CC2)C1)CC3` [R1=H, R2=MeO, R3=H, X=drawing 14], the “Pulmonary Selectivity*” value is 3. Besides, the ED50 under setting [1] is 35 µg/kg. Moreover, the ED50 under setting [2] came to 104 µg/kg.
